Source: ChEMBL document CHEMBL4251546, “Discovery and hit-to-lead evaluation of piperazine amides as selective, state-dependent NaV1.7 inhibitors” (Medchemcomm, 2017)
Converted amounts (≈) assume the structure as drawn.

How the values were obtained:
[1] = Thermodynamic solubility of the compound in PBS at pH 7.4; assay type: physicochemical; details: read-out: Therm_solubility
Mus musculus = test: Unbound Cmax in mouse at 100 mg/kg, po; assay type: ADME, organism-based; details: in vivo
[2] = Plasma concentration in C57Bl/6 mouse histamine dichloride-induced pruritus model at 300 mg/kg, po; assay type: ADME, organism-based; details: in vivo
[3] = Cmax in mouse at 100 mg/kg, po; assay type: ADME, organism-based; set-up: dose 100 mg/kg, route oral; details: in vivo
MDR1 (P-gp) = test: Apparent permeability across MDCK cells transfected with MDR1; assay type: ADME, cell-based, Canis lupus familiaris; details: dog

solubility thermodynamic [1] [µM]	SMILES	other results
96 (≈ 44.7 µg/mL)	O=C(NCc1ccccc1)[C@@H](c1ccccc1)N1CCN(C(=O)c2cc(F)ccc2Cl)CC1	fCmax (Mus musculus): 0.16 µM; concentration [2]: 22 µM; Cmax [3]: 4.3 µM; Papp (MDR1 (P-gp)): 36 ×10⁻⁶ cm/s
154 (≈ 77.8 µg/mL)	N#Cc1ccc([C@H](C(=O)NCC(F)(F)C2CC2)N2CCN(C(=O)c3cc(F)ccc3Cl)CC2)cc1	fCmax (Mus musculus): 3.28 µM; Cmax [3]: 29.8 µM
19 (≈ 10.2 µg/mL)	O=C(Nc1ccc(OCC(F)(F)F)nc1)[C@@H](c1ccccc1)N1CCN(C(=O)c2cc(F)cc(F)c2)CC1	–
74 (≈ 35.1 µg/mL)	N#Cc1ccc([C@H](C(=O)NCc2ccccc2)N2CCN(C(=O)c3cc(F)cc(F)c3)CC2)cc1	–
137 (≈ 61.6 µg/mL)	O=C(NCc1ccccc1)[C@@H](c1ccccc1)N1CCN(C(=O)c2cc(F)cc(F)c2)CC1	–
220 (≈ 102 µg/mL)	CN(Cc1ccccc1)C(=O)[C@@H](c1ccccc1)N1CCN(C(=O)c2cc(F)cc(F)c2)CC1	–
472 (≈ 195 µg/mL)	O=C(NCC1CC1)[C@@H](c1ccccc1)N1CCN(C(=O)c2cc(F)cc(F)c2)CC1	–
44 (≈ 23 µg/mL)	N#Cc1cc(OC(F)(F)F)cc(C(=O)N2CCN([C@@H](C(=O)NCc3ccccc3)c3ccccc3)CC2)c1	–
15 (≈ 8.39 µg/mL)	N#Cc1ccc([C@H](C(=O)Nc2ccc(OCC(F)(F)F)nc2)N2CCN(C(=O)c3cc(F)cc(F)c3)CC2)cc1	–
30 (≈ 15.1 µg/mL)	COc1cc([C@H](C(=O)NCc2ccccc2)N2CCN(C(=O)c3cc(F)cc(F)c3)CC2)ccc1C#N	–
405 (≈ 191 µg/mL)	N#Cc1cc(F)cc(C(=O)N2CCN([C@@H](C(=O)NCC(F)(F)C3CC3)c3ccccc3)CC2)c1	fCmax (Mus musculus): 1.66 µM; Cmax [3]: 12.8 µM
225 (≈ 117 µg/mL)	O=C(NCc1ccc(C(F)(F)F)nc1)[C@@H](c1ccccc1)N1CCN(C(=O)c2cc(F)cc(F)c2)CC1	–
454 (≈ 212 µg/mL)	O=C(NCc1ccccc1)[C@@H](c1ccccc1)N1CCN(C(=O)c2cc(F)cnc2Cl)CC1	–
346 (≈ 160 µg/mL)	O=C(NCC(F)(F)C1CC1)[C@@H](c1ccccc1)N1CCN(C(=O)c2cc(F)cc(F)c2)CC1	–
248 (≈ 113 µg/mL)	N#Cc1cc(F)cc(C(=O)N2CCN([C@@H](C(=O)NCc3ccccc3)c3ccccc3)CC2)c1	–
49 (≈ 27 µg/mL)	O=C(Nc1ccc(OCC(F)(F)F)nc1)[C@@H](c1ccccc1)N1CCN(C(=O)c2cc(F)cnc2Cl)CC1	–

SMILES	solubility thermodynamic [1] [µM]	other results
O=C(NCc1ccccc1)[C@@H](c1ccccc1)N1CC2CC(C1)N2C(=O)c1cc(F)ccc1Cl	83 (≈ 39.7 µg/mL)	–
N#Cc1ccc([C@H](C(=O)NCC2CC2)N2CC3CCC(C2)N3C(=O)c2cc(F)ccc2F)cc1	326 (≈ 151 µg/mL)	–
O=C(NCc1ccccc1)[C@@H](c1ccccc1)N1CCN(Cc2ccccc2)CC1	19 (≈ 7.59 µg/mL)	Papp (MDR1 (P-gp)): 24 ×10⁻⁶ cm/s
O=C(NCc1ccccc1)[C@@H](c1ccccc1)N1CC2CCC(C1)N2C(=O)c1cc(F)ccc1Cl	35 (≈ 17.2 µg/mL)	–
N#Cc1ccc([C@H](C(=O)NCC2CC2)N2CC3CCC(C2)N3C(=O)c2cc(F)cc(F)c2)cc1	322 (≈ 150 µg/mL)	–
